Measured values as given in patent publication US5220002A, “Deacetylcolchicine derivatives” (Ohgen Research Laboratories, Ltd., priority 1990, dated 1993).
Converted amounts (≈) assume the structure as drawn.

Columns and labels:
Acute toxicity test = assay: Acute toxicity test; parameters: species or system mouse (ddY male); conditions: mouse, in vivo, mortality for 1 week, Litchfield-Wilcoxon method
Description: The test compound is administered to each 5-week old ddY male mouse, and mortality is observed for 1 week. A 50% lethal dose (LD50) is calculated from the number of mice died in each group by a Litchfield-Wilcoxon method. The test compound (compound (a)) is suspended in 10% propylene glycol. Ten dilution gradients are prepared from the maximum concentration 80 mg/kg at a ratio of 1.2, and the test is carried out.

[1] = tested on: Adriamycin-resistant mouse leukemic cells P388/ADR; assay: In vitro tumor cell proliferation inhibiting test (Adriamycin-resistant mouse leukemic cells P388/ADR); assay type: cell-based; conditions: 48 h, 2×10^5, RPMI 1640 with 10% bovine fetal serum, 2 days, read-out: 50% proliferation inhibitory concentration: IC50
Description: 2×10^5 Adriamycin-resistant mouse leukemic cells P388/ADR are suspended in a RPMI 1640 culture medium containing 10% of a bovine fetal serum, and cultured for 2 days in the presence of a test compound (the test compound is dissolved in dimethyl sulfoxide such that the concentration becomes 1 mg/ml, and this is diluted with a phosphate buffer solution). An influence on cell proliferation is investigated, and 50% proliferation inhibitory concentration: IC50 value (μg/ml) is determined.

Sarcoma 180 solid tumor = assay: In vivo test on Sarcoma 180 solid tumor transplanted mice; parameters: species or system mouse (ddY female); conditions: for Average tumor weight (mean ± SD, g): once a day over 10 days from 6th day, tumor taken out 30 days after transplantation; for Percent inhibition: tumor weight, 30 days after transplantation
Description: 2×10^6 Sarcoma 180 cells are transplanted subcutaneously in the back of each of 6-week old ddY female mice. Over 10 days from the 6th day after the tumor transplantation in groups each consisting of 6 mices, the test compound (which is dissolved in propylene glycol and diluted with a phosphate buffer solution such that the final concentration of propylene glycol becomes 20% or less) is continuously administered in the abdominal cavity once a day. Thirty days after the tumor transplantation, the tumor is taken out. Its weight is measured, and an average tumor weight and percent inhibition* are measured. [formula]

[2] = tested on: Sarcoma 180 ascites tumor; assay: In vivo test on Sarcoma 180 ascites tumor transplanted mice; parameters: species or system mouse (ddY male); conditions: once a day over 7 days; for Average number of survival days (mean ± SD): 6 mice per group; for Cured example: groups of 6 mice
Description: 1×10^6 Sarcoma 180 cells are transplanted in an abdominal cavity of each of 6-week old ddY male mice. Over 7 days after the first day of transplantation of tumor cells in groups each consisting of 6 mice, the test compound (which is dissolved in propyplene glycol and diluted with a phosphate buffer solution such that the final concentration of propylene glycol becomes 20% or less) is administered in the abdominal cavity once a day, and an average number of survival days and percent prolongation* are measured. [formula]

COc1cc2c(c(OC)c1OC)-c1ccc(OC)c(=O)cc1C(NC(=O)[C@@H]1COC(C)(C)O1)CC2 (stereo partly shown) [Compound 1a, Deacetylcolchicine-glyceric Acid Acetonideamide]
LD50 at 168 h (Acute toxicity test; ip, intraperitoneal): 42 mg/kg | LD50 at 168 h (Acute toxicity test; intravenous): 38 mg/kg | IC50 [1]: 0.036 µg/mL (≈ 0.0741 µM) | Average tumor weight (mean ± SD, g) (Sarcoma 180 solid tumor; 0.625 μg/kg i.p.): 0.71 ± 0.38 g | Percent inhibition (Sarcoma 180 solid tumor; 0.625 μg/kg i.p.): 49.6% | Average tumor weight (mean ± SD, g) (Sarcoma 180 solid tumor; 1.25 μg/kg i.p.): 0.88 ± 0.78 g | Percent inhibition (Sarcoma 180 solid tumor; 1.25 μg/kg i.p.): 47.6% | Average tumor weight (mean ± SD, g) (Sarcoma 180 solid tumor; 2.5 μg/kg i.p.): 0.63 ± 0.51 g | Percent inhibition (Sarcoma 180 solid tumor; 2.5 μg/kg i.p.): 55.3% | Average tumor weight (mean ± SD, g) (Sarcoma 180 solid tumor; 5.0 μg/kg i.p.): 0.60 ± 0.52 g | Percent inhibition (Sarcoma 180 solid tumor; 5.0 μg/kg i.p.): 57.4% | Percent prolongation ([2]; 0.31 mg/kg i.p.): 188% | Average number of survival days (mean ± SD) ([2]; 0.31 mg/kg i.p.): 36.0 ± 8.0 days | Percent prolongation ([2]; 0.63 mg/kg i.p.): 281% | Average number of survival days (mean ± SD) ([2]; 0.63 mg/kg i.p.): 47.7 ± 11.1 days | Cured example ([2]; 0.63 mg/kg i.p.): 1 | Percent prolongation ([2]; 1.25 mg/kg i.p.): 277% | Average number of survival days (mean ± SD) ([2]; 1.25 mg/kg i.p.): 47.2 ± 11.5 days | Cured example ([2]; 1.25 mg/kg i.p.): 2 | Percent prolongation ([2]; 2.5 mg/kg i.p.): 333% | Average number of survival days (mean ± SD) ([2]; 2.5 mg/kg i.p.): 54.2 ± 11.6 days | Cured example ([2]; 2.5 mg/kg i.p.): 4

COc1cc2c(c(OC)c1OC)-c1ccc(OC)c(=O)cc1C(NC(=O)[C@H]1COC(C)(C)O1)CC2 (stereo partly shown) [Compound 1b, Deacetylcolchicine-glyceric Acid Acetonideamide]
IC50 [1]: 0.066 µg/mL (≈ 0.136 µM) | Percent prolongation ([2]; 1.25 mg/kg i.p.): 240% | Average number of survival days (mean ± SD) ([2]; 1.25 mg/kg i.p.): 42.5 ± 15.4 days | Cured example ([2]; 1.25 mg/kg i.p.): 1 | Percent prolongation ([2]; 2.5 mg/kg i.p.): 356% | Average number of survival days (mean ± SD) ([2]; 2.5 mg/kg i.p.): 57.0 ± 7.3 days | Cured example ([2]; 2.5 mg/kg i.p.): 5 | Percent prolongation ([2]; 5 mg/kg i.p.): 356% | Average number of survival days (mean ± SD) ([2]; 5 mg/kg i.p.): 57.0 ± 5.3 days | Cured example ([2]; 5 mg/kg i.p.): 4

COc1cc2c(c(OC)c1OC)-c1ccc(OC)c(=O)cc1C(NC(=O)[C@H]1O[C@H](OC(C)=O)[C@H](O)[C@@H](O)[C@@H]1OC(C)=O)CC2 (stereo partly shown) [Compound 4, Deacetylcolchicine-glucuronic acid diacetateamide]
IC50 [1]: 0.034 µg/mL

COc1cc2c(c(OC)c1OC)-c1ccc(OC)c(=O)cc1C(NC(=O)[C@H]1O[C@H](O)[C@H](O)[C@@H](O)[C@@H]1O)CC2 (stereo partly shown) [Compound 5, N-(5,6,7,9-tetrahydro-1,2,3,10-tetramethoxy-9-oxobenzo[a]heptalen-7-yl)glucuroneamide]
IC50 [1]: 0.037 µg/mL (≈ 0.0693 µM)
